Measurements taken from BindingDB's records for doi:10.1016/s0960-894x(98)00106-1 (Oregon State University, 1999).

Experiment: Compound was evaluated for the inhibition of L-pipecolate oxidase(LPO) isolated from frozen Rhesus monkey liver

Molecule `O=C(O)[C@H]1NC[C@@H]2O[C@@H]21` [(1R,2S,5S)-6-Oxa-3-aza-bicyclo[3.1.0]hexane-2-carboxylic acid] has an IC50 of 200 µM.
